Data as given in ChEMBL document CHEMBL4610129, “Discovery of Novel Selective and Orally Bioavailable Phosphodiesterase-1 Inhibitors for the Efficient Treatment of Idiopathic Pulmonary Fibrosis” (J Med Chem, 2020).
Calls of active or inactive are those of the source. The calls are words filed in the database; no cut-off is given here.

Experiments:
Rattus norvegicus [1] = assay: Anti-pulmonary fibrosis activity in Sprague-Dawley rat model of BLM-induced idiopathic pulmonary fibrosis assessed as reduction in peak expiratory flow at 150 mg/kg, po dosed daily for 28 days by mka noninvasive pulmonary monitoring system based method; assay type: functional, organism-based
Rattus norvegicus [2] = assay: Anti-pulmonary fibrosis activity in Sprague-Dawley rat model of BLM-induced idiopathic pulmonary fibrosis assessed as reduction in end-inspiratory pause at 150 mg/kg, po dosed daily for 28 days by mka noninvasive pulmonary monitoring system based method; assay type: functional, organism-based
Rattus norvegicus [3] = assay: Anti-pulmonary fibrosis activity in Sprague-Dawley rat model of BLM-induced idiopathic pulmonary fibrosis assessed as reduction in enhanced pause at 150 mg/kg, po dosed daily for 28 days by mka noninvasive pulmonary monitoring system based method; assay type: functional, organism-based
Rattus norvegicus [4] = assay: Anti-pulmonary fibrosis activity in Sprague-Dawley rat model of BLM-induced idiopathic pulmonary fibrosis assessed as reduction in end-expiratory pause at 150 mg/kg, po dosed daily for 28 days by mka noninvasive pulmonary monitoring system based method; assay type: functional, organism-based
Rattus norvegicus [5] = assay: Anti-pulmonary fibrosis activity in Sprague-Dawley rat model of BLM-induced idiopathic pulmonary fibrosis assessed as reduction in peak inspiratory flow at 150 mg/kg, po dosed daily for 28 days by mka noninvasive pulmonary monitoring system based method; assay type: functional, organism-based
Rattus norvegicus [6] = assay: Anti-pulmonary fibrosis activity in Sprague-Dawley rat model of BLM-induced idiopathic pulmonary fibrosis assessed as reduction in lung structural damage at 150 mg/kg, po dosed daily for 28 days by H and E staining based assay; assay type: functional, organism-based
Rattus norvegicus [7] = assay: Anti-pulmonary fibrosis activity in Sprague-Dawley rat model of BLM-induced idiopathic pulmonary fibrosis assessed as reduction in mid-expiratory flow at 150 mg/kg, po dosed daily for 28 days by mka noninvasive pulmonary monitoring system based method; assay type: functional, organism-based
Rattus norvegicus [8] = assay: Anti-pulmonary fibrosis activity in Sprague-Dawley rat model of BLM-induced idiopathic pulmonary fibrosis assessed as inhibition of collagen deposition at 150 mg/kg, po dosed daily for 28 days by Masson staining based assay; assay type: functional, organism-based
[9] = Half life in rat liver microsomes; assay type: ADME, Microsome
[10] = target: T1, Dual specificity calcium/calmodulin-dependent 3',5'-cyclic nucleotide phosphodiesterase 1C (Homo sapiens, UniProt Q14123); assay: Inhibition of PDE1C2 (147 to 531 residues) (unknown origin) using [3H]-cGMP substrate incubated for 15 mins by liquid scintillation counting method
T1 sequence (Q14123 whole entry, the tested form may be a part): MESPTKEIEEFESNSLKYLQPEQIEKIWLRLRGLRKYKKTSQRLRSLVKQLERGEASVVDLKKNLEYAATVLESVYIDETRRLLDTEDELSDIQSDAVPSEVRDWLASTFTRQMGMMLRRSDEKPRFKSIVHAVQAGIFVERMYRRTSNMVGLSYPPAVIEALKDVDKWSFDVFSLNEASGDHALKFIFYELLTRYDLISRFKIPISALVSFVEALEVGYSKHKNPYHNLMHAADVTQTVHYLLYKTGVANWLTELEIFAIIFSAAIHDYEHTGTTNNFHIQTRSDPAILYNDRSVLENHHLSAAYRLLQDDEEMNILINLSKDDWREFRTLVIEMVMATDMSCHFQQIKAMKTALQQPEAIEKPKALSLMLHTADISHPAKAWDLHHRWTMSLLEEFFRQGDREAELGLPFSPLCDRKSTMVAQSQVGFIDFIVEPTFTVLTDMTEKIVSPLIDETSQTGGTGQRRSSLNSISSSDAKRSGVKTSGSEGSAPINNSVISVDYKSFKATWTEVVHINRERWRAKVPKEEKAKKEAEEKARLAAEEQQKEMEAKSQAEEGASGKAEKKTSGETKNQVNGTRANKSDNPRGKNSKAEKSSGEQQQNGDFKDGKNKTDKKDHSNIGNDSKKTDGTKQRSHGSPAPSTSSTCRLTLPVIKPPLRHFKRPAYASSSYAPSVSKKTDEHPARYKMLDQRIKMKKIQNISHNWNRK

[11] = target: Dual specificity calcium/calmodulin-dependent 3',5'-cyclic nucleotide phosphodiesterase 1B (Homo sapiens, UniProt Q01064); assay: Inhibition of PDE1B (146 to 506 residues) (unknown origin) using [3H]-cGMP substrate incubated for 15 mins by liquid scintillation counting method
Sequence of Dual specificity calcium/calmodulin-dependent 3',5'-cyclic nucleotide phosphodiesterase 1B (Q01064 whole entry, the tested form may be a part): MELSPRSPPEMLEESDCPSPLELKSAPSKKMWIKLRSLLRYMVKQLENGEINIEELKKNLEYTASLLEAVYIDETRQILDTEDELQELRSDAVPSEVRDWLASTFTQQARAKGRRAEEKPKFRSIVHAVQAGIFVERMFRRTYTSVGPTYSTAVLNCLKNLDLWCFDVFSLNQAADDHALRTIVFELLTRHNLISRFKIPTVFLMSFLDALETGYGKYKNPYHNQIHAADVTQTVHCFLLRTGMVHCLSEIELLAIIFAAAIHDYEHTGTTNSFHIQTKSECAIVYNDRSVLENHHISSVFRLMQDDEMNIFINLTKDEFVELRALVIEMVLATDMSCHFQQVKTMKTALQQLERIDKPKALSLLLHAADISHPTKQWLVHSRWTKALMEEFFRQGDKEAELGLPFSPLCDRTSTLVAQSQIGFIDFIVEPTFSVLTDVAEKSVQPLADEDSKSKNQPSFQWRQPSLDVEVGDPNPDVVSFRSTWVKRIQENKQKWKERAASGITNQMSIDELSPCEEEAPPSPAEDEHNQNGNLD

[12] = target: T1, Dual specificity calcium/calmodulin-dependent 3',5'-cyclic nucleotide phosphodiesterase 1C; assay: Inhibition of PDE1C2 (147 to 531 residues) (unknown origin) at 100 nM using [3H]-cGMP substrate incubated for 15 mins by liquid scintillation counting method relative to control
[13] = target: High affinity cGMP-specific 3',5'-cyclic phosphodiesterase 9A (Homo sapiens, UniProt O76083); assay: Inhibition of PDE9A (181 to 506 residues) (unknown origin) using [3H]-cGMP substrate incubated for 15 mins by liquid scintillation counting method
Sequence of High affinity cGMP-specific 3',5'-cyclic phosphodiesterase 9A (O76083 whole entry, the tested form may be a part): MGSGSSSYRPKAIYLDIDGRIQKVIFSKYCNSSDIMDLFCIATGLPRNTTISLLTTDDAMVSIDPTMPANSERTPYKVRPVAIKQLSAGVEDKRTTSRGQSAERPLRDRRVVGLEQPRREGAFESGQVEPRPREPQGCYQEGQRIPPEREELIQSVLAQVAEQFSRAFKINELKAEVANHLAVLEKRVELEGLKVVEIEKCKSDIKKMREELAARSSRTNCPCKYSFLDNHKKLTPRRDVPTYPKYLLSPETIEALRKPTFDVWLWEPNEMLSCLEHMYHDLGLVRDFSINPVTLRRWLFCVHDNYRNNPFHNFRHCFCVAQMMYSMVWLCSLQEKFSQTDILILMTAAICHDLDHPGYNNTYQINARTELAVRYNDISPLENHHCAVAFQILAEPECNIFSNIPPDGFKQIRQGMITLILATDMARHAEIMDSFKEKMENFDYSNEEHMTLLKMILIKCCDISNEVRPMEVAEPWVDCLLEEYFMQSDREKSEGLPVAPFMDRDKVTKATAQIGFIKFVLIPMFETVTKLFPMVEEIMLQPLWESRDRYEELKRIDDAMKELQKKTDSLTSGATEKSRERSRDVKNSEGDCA

SMILES | half-life [9] | IC50 [10] | inhibition [12] | other results
Cc1ccc(=O)n(-c2ccccc2)c1 | – | – | – | Activity (Rattus norvegicus [1]): Active; Activity (Rattus norvegicus [2]): Active; Activity (Rattus norvegicus [3]): Active; Activity (Rattus norvegicus [4]): Active; Activity (Rattus norvegicus [5]): Active; Activity (Rattus norvegicus [6]): Active; Activity (Rattus norvegicus [7]): Active; Activity (Rattus norvegicus [8]): Active
C[C@@H](Nc1nc2c(cnn2C(C)(C)C)c(=O)n1Cc1ccc2c(c1)OCO2)c1ccc(Cl)cc1 | 2.1 min | 0.027 µM | – | –
C[C@@H](Nc1nc2c(cnn2C2CCCC2)c(=O)[nH]1)c1ccc(Cl)cc1 | – | – | – | IC50 [11]: 0.08 µM
CC(C)(C)n1ncc2c(=O)n(Cc3ccc(F)cc3)c(N[C@@H]3CCc4ccccc43)nc21 | – | – | 54% | –
C[C@@H](Nc1nc2c(cnn2C(C)(C)C)c(=O)n1Cc1ccccc1)c1ccc(F)cc1 | – | 0.0026 µM | – | –
C[C@H](Nc1nc2c(cnn2C(C)(C)C)c(=O)n1Cc1ccccc1)c1ccc(F)cc1 | – | 0.245 µM | – | –
C[C@H](Nc1nc2c(cnn2C(C)(C)C)c(=O)n1Cc1ccccc1)c1ccc(Cl)cc1 | – | 0.157 µM | – | –
CC1c2ccccc2CCN1c1nc2c(cnn2C(C)(C)C)c(=O)n1Cc1ccc(F)cc1 (stereo not given) | – | – | 16% | –
CCn1c(N[C@H](C)c2ccc(Cl)cc2)nc2c(cnn2C2CCCC2)c1=O | – | – | 13% | –
C[C@@H](Nc1nc2c(cnn2C(C)(C)C)c(=O)n1Cc1ccccc1)c1ccc(Cl)cc1 | 8.2 min | 0.0015 µM | – | –
C[C@@H](Nc1nc2c(cnn2C2CCCC2)c(=O)n1Cc1ccccc1)c1ccc(Cl)cc1 | 0.5 min | 0.0047 µM | – | IC50 [13]: > 10 µM; IC50 [11]: 0.023 µM
CC(C)(C)n1ncc2c(=O)n(Cc3ccc(F)cc3)c(N[C@H]3CCc4ccccc43)nc21 | – | – | 37% | –
CC(C)Cn1c(N[C@H](C)c2ccc(Cl)cc2)nc2c(cnn2C2CCCC2)c1=O | – | – | 5% | –

Further lines, with some results ahead:

half-life [9] | IC50 [10] | inhibition [12] | SMILES | other results
2.4 min | 0.0009 µM | – | CC(C)n1ncc2c(=O)n(Cc3ccccc3)c(N[C@H](C)c3ccc(Cl)cc3)nc21 | –
1.6 min | 0.02 µM | – | CC(C)n1ncc2c(=O)n(Cc3ccc4c(c3)OCO4)c(N[C@H](C)c3ccc(Cl)cc3)nc21 | –
– | 0.065 µM | – | C[C@@H](Nc1nc2c(cnn2C(C)(C)C)c(=O)n1C)c1ccc(Cl)cc1 | –
– | – | 47% | CC(C)n1ncc2c(=O)n(Cc3ccsc3)c(N[C@H](C)c3ccc(Cl)cc3)nc21 | –
– | – | 39% | CC(C)n1ncc2c(=O)n(Cc3ccncc3)c(N[C@H](C)c3ccc(Cl)cc3)nc21 | –
– | 0.258 µM | – | C[C@@H](Nc1nc2c(cnn2C2CCCC2)c(=O)n1C)c1ccc(Cl)cc1 | –
2.2 min | 0.057 µM | – | CC(C)n1ncc2c(=O)n(C)c(N[C@H](C)c3ccc(Cl)cc3)nc21 | –
